Data as given in patent publication US20240366589A1, “NHE3-BINDING COMPOUNDS AND METHODS FOR INHIBITING PHOSPHATE TRANSPORT” (Ardelyx, Inc., priority 2013, published 2024).

What was measured:
Rat NHE3 = molecular target: T1, Rat NHE3 (Rattus norvegicus, UniProt P26433); experiment: Cell-based NHE3 activity under prompt conditions (OK cells, BCECF pH recovery), rat NHE3; settings: prompt conditions
T1 construct: expressed in transfected cells; host or cells: Opossum kidney (OK) cells (ATCC), electroporation
How it was run: (§1)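 Read-out: initial rate of BCECF-reported intracellular pH recovery via Na+/H+ antiport, fitted to pIC50. Opossum kidney cells transfected with rat or human NHE3; NH4Cl prepulse with 5 μM BCECF-AM, 30 min RT; Na+-free choline buffer 10 min.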

Human NHE3 = molecular target: T2, Human NHE3 (Homo sapiens, UniProt P48764); experiment: Cell-based NHE3 activity under prompt conditions (OK cells, BCECF pH recovery), human NHE3; settings: prompt conditions
T2 construct: expressed in transfected cells; host or cells: Opossum kidney (OK) cells (ATCC), electroporation
T2 sequence (P48764 26-834): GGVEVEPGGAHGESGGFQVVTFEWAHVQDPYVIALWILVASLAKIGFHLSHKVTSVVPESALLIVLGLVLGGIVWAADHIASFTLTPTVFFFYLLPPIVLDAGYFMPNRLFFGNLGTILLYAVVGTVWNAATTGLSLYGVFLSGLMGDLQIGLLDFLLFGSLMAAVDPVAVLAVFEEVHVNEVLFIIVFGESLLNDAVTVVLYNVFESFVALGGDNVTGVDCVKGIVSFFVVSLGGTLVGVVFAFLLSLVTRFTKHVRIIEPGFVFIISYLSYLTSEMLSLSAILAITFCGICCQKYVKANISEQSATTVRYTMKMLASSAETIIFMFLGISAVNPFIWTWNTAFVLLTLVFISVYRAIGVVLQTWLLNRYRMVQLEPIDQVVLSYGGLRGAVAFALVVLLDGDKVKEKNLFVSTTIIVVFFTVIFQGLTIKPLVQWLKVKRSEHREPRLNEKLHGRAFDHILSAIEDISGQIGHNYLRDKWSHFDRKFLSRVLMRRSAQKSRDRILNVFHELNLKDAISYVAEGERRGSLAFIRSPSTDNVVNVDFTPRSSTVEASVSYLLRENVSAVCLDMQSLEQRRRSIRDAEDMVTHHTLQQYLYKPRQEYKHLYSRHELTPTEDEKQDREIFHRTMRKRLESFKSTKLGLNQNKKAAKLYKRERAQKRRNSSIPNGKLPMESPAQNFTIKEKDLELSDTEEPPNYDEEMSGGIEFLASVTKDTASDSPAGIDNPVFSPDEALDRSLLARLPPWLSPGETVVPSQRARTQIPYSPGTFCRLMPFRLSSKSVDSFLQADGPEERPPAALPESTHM
How it was run: as §1

[1] = system: absorption of sodium from the intestinal lumen; experiment: Inhibition of intestinal sodium absorption: urinary sodium (uNa) 16 h after single oral dose in rats; type: in vivo, rat; settings: oral gavage, 16 h post-dose
How it was run: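 Urinary sodium mass over the 16 h after one oral gavage dose, measured by cation-exchange ion chromatography, reported as percent of water-vehicle group; ANOVA plus Dunnett's post hoc test. Groups of six 8-week-old Sprague-Dawley rats, housed individually in metabolic cages post-dose, fed and watered freely.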

[2] = system: absorption of sodium from the intestinal lumen; experiment: Fecal form score (FFS) 16 h after oral dose in rats; type: in vivo, rat; settings: oral gavage, 16 h post-dose, scale 1-5
How it was run: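 Fecal form was scored at 16 h post-dose on a 1–5 wetness scale (normal pellet to liquid stream), with two independent observations averaged across six rats per group. Animals were 8-week-old Sprague-Dawley rats given test compound or water orally in the late afternoon and kept in metabolic cages.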

[3] = system: phosphorus and calcium levels in the urine of rats; experiment: Urinary excretion of phosphate and calcium in rats (16 h overnight urine); type: in vivo, rat; settings: rats, oral gavage, 16 h post-dose

T1 sequence (P26433 29-831): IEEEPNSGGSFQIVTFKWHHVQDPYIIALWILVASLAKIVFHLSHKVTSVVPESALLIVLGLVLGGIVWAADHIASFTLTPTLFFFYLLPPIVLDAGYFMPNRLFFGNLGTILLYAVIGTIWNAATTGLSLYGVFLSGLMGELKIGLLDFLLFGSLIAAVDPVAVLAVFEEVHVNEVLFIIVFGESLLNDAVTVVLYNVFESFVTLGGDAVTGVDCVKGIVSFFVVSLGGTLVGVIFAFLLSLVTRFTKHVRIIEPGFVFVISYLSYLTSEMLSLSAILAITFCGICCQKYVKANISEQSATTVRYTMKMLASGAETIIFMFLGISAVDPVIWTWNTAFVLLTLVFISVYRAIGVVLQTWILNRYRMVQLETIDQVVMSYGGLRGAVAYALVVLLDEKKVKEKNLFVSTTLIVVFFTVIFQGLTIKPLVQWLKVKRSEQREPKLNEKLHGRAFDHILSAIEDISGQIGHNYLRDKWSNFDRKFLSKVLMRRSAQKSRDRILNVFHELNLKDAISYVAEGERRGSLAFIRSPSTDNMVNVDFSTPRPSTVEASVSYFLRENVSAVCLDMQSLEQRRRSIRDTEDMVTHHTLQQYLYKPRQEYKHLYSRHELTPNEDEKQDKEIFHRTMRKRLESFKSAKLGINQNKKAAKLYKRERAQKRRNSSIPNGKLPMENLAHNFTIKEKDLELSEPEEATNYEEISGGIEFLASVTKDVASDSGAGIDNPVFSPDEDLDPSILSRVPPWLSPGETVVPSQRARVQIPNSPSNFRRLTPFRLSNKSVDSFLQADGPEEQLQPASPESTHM

SMILES	Prompt Rat NHE3 pIC50 (Rat NHE3)	Prompt Human NHE3 pIC50 (Human NHE3)	Urine Na % of control ([1]; dose 1 mg/kg) [%]	Urine Na % of control ([1]; dose 3 mg/kg) [%]	Urine Na % of control ([1]; dose 10 mg/kg) [%]	Fecal Form Score average ([2]; dose 1 mg/kg)	Fecal Form Score average ([2]; dose 3 mg/kg)	Fecal Form Score average ([2]; dose 10 mg/kg)	Urine P % of control ([3]; dose 1 mg/kg) [%]	Urine P % of control ([3]; dose 3 mg/kg) [%]	Urine P % of control ([3]; dose 10 mg/kg) [%]	IC50 (Rat NHE3; read-out: Prompt Rat NHE3 pIC50 (converted)) [nM]
CN1Cc2c(Cl)cc(Cl)cc2[C@H](c2cccc(S(=O)(=O)N(C)CCOCCOCCNC(=O)NCCCN(CCCNC(=O)NCCOCCOCCN(C)S(=O)(=O)c3cccc([C@@H]4CN(C)Cc5c(Cl)cc(Cl)cc54)c3)CCCNC(=O)NCCOCCOCCN(C)S(=O)(=O)c3cccc([C@@H]4CN(C)Cc5c(Cl)cc(Cl)cc54)c3)c2)C1 [compound 106]	7.00	7.90	98	76	20	1	2	4	124	39	64	
CN1Cc2c(Cl)cc(Cl)cc2[C@H](c2cccc(S(=O)(=O)NCCOCCOCCNC(=O)N(C)CCCN(CCCN(C)C(=O)NCCOCCOCCNS(=O)(=O)c3cccc([C@@H]4CN(C)Cc5c(Cl)cc(Cl)cc54)c3)CCCN(C)C(=O)NCCOCCOCCNS(=O)(=O)c3cccc([C@@H]4CN(C)Cc5c(Cl)cc(Cl)cc54)c3)c2)C1 [compound 107]	6.90	8.10	88	55	28	1	1	4	106	66	59	
CN1Cc2c(Cl)cc(Cl)cc2[C@H](c2cccc(S(=O)(=O)NCCOCCOCCNC(=O)NCCC[N+](C)(CCCNC(=O)NCCOCCOCCNS(=O)(=O)c3cccc([C@@H]4CN(C)Cc5c(Cl)cc(Cl)cc54)c3)CCCNC(=O)NCCOCCOCCNS(=O)(=O)c3cccc([C@@H]4CN(C)Cc5c(Cl)cc(Cl)cc54)c3)c2)C1 [compound 109]	7.40	8.10	64	52	28	1	2	4	65	51	52	
CN1Cc2c(Cl)cc(Cl)cc2[C@H](c2cccc(S(=O)(=O)NCCOCCOCCNC(=O)CCC(CCC(=O)NCCOCCOCCNS(=O)(=O)c3cccc([C@@H]4CN(C)Cc5c(Cl)cc(Cl)cc54)c3)(CCC(=O)NCCOCCOCCNS(=O)(=O)c3cccc([C@@H]4CN(C)Cc5c(Cl)cc(Cl)cc54)c3)NCc3ccc(-c4ccc(Cl)cc4)cc3)c2)C1 [compound 113]	<5.00	<5.00			64			1			61	
CN(C)[C@H]1Cc2ccccc2[C@@H]1Oc1ccc(S(=O)(=O)NCCOCCOCCNC(=O)NCCCCNC(=O)NCCOCCOCCNS(=O)(=O)c2ccc(O[C@H]3c4ccccc4C[C@@H]3N(C)C)cc2)cc1 [compound 115]	<5.00	8.55			69			1			60	
CN(C)[C@H]1Cc2ccc(Cl)cc2[C@@H]1Oc1ccc(S(=O)(=O)NCCOCCOCCNC(=O)NCCCCNC(=O)NCCOCCOCCNS(=O)(=O)c2ccc(O[C@H]3c4cc(Cl)ccc4C[C@@H]3N(C)C)cc2)cc1 [compound 116]	<5.00	8.30			84			1			130	
O=C(NCCOCCOCCOCCNS(=O)(=O)c1ccc(O[C@H]2c3ccccc3C[C@@H]2N2CCCCC2)cc1)c1ccc(C(=O)NCCOCCOCCOCCNS(=O)(=O)c2ccc(O[C@H]3c4ccccc4C[C@@H]3N3CCCCC3)cc2)cc1 [compound 117]	7.50	8.20			77			1			98	
O=C(NCCOCCOCCOCCNS(=O)(=O)c1ccc(O[C@H]2c3ccccc3C[C@@H]2N2CCCCC2)cc1)c1cccc(C(=O)NCCOCCOCCOCCNS(=O)(=O)c2ccc(O[C@H]3c4ccccc4C[C@@H]3N3CCCCC3)cc2)c1 [compound 118]	7.40	8.10			83			1			131	
CC(C)(C(=O)NCCOCCOCCOCCNS(=O)(=O)c1ccc(O[C@H]2c3ccccc3C[C@@H]2N2CCCCC2)cc1)C(=O)NCCOCCOCCOCCNS(=O)(=O)c1ccc(O[C@H]2c3ccccc3C[C@@H]2N2CCCCC2)cc1 [compound 119]	8.70	7.80			43			1			52	
CN1Cc2c(Cl)cc(Cl)cc2[C@H](c2cccc(S(=O)(=O)NCCOCCOCCNC(=O)CCC(CCC(=O)NCCOCCOCCNS(=O)(=O)c3cccc([C@@H]4CN(C)Cc5c(Cl)cc(Cl)cc54)c3)(CCC(=O)NCCOCCOCCNS(=O)(=O)c3cccc([C@@H]4CN(C)Cc5c(Cl)cc(Cl)cc54)c3)NS(C)(=O)=O)c2)C1 [compound 122]	6.20	6.80		30			2			87		
CN1Cc2c(Cl)cc(Cl)cc2[C@H](c2cccc(S(=O)(=O)NCCOCCOCCNC(=O)CCC(CCC(=O)NCCOCCOCCNS(=O)(=O)c3cccc([C@@H]4CN(C)Cc5c(Cl)cc(Cl)cc54)c3)(CCC(=O)NCCOCCOCCNS(=O)(=O)c3cccc([C@@H]4CN(C)Cc5c(Cl)cc(Cl)cc54)c3)NC(=O)CCC(=O)O)c2)C1 [compound 123]	7.50	7.80	49	12		1	3		124	88		
CN1Cc2c(Cl)cc(Cl)cc2[C@H](c2cccc(S(=O)(=O)NCCOCCOCCNC(=O)CCC(CCC(=O)NCCOCCOCCNS(=O)(=O)c3cccc([C@@H]4CN(C)Cc5c(Cl)cc(Cl)cc54)c3)(CCC(=O)NCCOCCOCCNS(=O)(=O)c3cccc([C@@H]4CN(C)Cc5c(Cl)cc(Cl)cc54)c3)N(C)C)c2)C1 [compound 124]		7.50	69	22		1	2		154	61		67.6
O=C(NCCCCNC(=O)NCCOCCOCCNC(=O)Nc1cccc(O[C@H]2c3ccccc3C[C@@H]2N2CCCCC2)c1)NCCOCCOCCNC(=O)Nc1cccc(O[C@H]2c3ccccc3C[C@@H]2N2CCCCC2)c1 [compound 126]	<5.00	6.55			93			1			94	
